Source: ChEMBL document CHEMBL1201862, “PubChem BioAssay data set” (2004)
Each block holds one molecule with its values, some of them ahead of it. Calls of active or inactive are those of the source. Unless noted, the calls are words filed in the database; no cut-off is given here.

Legend:
[1] = target: T1, Zinc finger protein mex-5 (Caenorhabditis elegans, UniProt Q9XUB2); assay: potency of MEX-5 RNA-binding blockers – biochemical, C. elegans, fluorescence polarization, dose response (AID 1960)
T1 sequence (Q9XUB2 whole entry): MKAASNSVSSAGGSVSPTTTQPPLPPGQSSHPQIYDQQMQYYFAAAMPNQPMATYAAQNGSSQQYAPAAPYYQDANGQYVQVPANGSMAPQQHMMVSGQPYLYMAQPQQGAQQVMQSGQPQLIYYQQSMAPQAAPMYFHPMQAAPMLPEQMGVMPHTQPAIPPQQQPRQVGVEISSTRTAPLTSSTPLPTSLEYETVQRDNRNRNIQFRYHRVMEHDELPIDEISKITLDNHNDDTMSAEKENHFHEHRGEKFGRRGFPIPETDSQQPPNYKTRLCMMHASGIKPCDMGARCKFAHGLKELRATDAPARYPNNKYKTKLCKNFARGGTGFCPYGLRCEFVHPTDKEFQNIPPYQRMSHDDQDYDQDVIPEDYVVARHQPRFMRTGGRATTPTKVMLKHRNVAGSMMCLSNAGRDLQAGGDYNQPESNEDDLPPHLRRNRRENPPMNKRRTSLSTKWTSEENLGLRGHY

[2] = target: T2, RNA-binding protein pos-1 (Caenorhabditis elegans, UniProt G5EF15); assay: disruptors of C. elegans POS-1 RNA interaction – biochemical, fluorescence polarization, dose response (AID 1964);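 further: purified POS-1 fused to maltose binding protein made in E. coli; potency of compounds blocking POS-1 binding to fluorescent RNA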
T2 sequence (G5EF15 whole entry): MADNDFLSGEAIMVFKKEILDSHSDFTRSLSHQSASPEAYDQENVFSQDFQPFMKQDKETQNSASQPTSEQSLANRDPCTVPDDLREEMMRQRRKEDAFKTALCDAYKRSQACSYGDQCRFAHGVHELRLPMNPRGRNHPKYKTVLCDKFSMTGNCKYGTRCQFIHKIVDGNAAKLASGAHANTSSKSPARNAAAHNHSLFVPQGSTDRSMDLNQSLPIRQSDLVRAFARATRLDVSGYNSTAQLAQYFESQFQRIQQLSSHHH

[3] = target: Voltage-dependent T-type calcium channel subunit alpha-1H (Homo sapiens, UniProt O95180); format: functional;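 further: channel activity triggered by adding a high calcium stimulation buffer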
[4] = target: T3, Endoribonuclease toxin MazF (Escherichia coli K-12, UniProt P0AE70); assay: activation of MazEF endoribonuclease cleavage – biochemical, fluorescence, single-stranded RNA substrate, uHTS hits, dose response (AID 588481); format: functional
[5] = target: T3, Endoribonuclease toxin MazF; assay: substrate-only fluorescence increase artefacts – biochemical, single-stranded RNase substrate, counter-screen for MazEF activator project, dose response (AID 588502); format: functional
[6] = target: Ephrin type-A receptor 4 (Mus musculus, UniProt Q03137); assay: EphA4 ligand-binding antagonists – biochemical, colorimetric, mouse EphA4, primary screen (AID 689); format: functional
[7] = target: T4, Corticotropin-releasing factor receptor 2/Corticotropin-releasing factor-binding protein (Homo sapiens, UniProt P24387+Q13324); assay: activators of CRF receptor 2 with binding protein – uHTS hits, confirmation (AID 602473); format: functional; conditions: read-out: EC50_Mean
T4 sequence (Q13324 whole entry): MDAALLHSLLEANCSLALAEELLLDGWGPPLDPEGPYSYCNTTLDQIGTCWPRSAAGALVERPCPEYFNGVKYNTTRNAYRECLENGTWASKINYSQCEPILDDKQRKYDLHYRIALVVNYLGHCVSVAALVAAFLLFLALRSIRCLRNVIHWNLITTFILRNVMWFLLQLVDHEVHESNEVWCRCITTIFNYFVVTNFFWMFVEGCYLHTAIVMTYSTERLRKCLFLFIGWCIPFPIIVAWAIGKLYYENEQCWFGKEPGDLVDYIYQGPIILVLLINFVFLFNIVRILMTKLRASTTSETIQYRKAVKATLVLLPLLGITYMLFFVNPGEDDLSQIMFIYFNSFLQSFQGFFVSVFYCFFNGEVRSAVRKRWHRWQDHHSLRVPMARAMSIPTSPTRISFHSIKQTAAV
T4 sequence (P24387 whole entry): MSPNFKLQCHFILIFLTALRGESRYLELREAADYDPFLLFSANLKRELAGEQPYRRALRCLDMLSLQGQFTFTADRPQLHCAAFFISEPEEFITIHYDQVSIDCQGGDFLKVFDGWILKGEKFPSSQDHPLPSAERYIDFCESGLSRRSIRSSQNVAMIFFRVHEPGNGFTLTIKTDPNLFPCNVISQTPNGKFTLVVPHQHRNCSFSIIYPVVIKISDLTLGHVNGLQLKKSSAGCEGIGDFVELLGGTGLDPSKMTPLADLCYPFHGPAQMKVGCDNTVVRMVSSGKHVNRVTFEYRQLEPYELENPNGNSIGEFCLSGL

[8] = target: T5, Short transient receptor potential channel 4 (Mus musculus, UniProt Q9QUQ5); assay: potency of mouse TRPC4 calcium flux blockers – cell-based, HEK293 TRPC4/mu-opioid, DAMGO stimulus, Fluo-4, dose response (AID 492994); format: functional
T5 sequence (Q9QUQ5 whole entry): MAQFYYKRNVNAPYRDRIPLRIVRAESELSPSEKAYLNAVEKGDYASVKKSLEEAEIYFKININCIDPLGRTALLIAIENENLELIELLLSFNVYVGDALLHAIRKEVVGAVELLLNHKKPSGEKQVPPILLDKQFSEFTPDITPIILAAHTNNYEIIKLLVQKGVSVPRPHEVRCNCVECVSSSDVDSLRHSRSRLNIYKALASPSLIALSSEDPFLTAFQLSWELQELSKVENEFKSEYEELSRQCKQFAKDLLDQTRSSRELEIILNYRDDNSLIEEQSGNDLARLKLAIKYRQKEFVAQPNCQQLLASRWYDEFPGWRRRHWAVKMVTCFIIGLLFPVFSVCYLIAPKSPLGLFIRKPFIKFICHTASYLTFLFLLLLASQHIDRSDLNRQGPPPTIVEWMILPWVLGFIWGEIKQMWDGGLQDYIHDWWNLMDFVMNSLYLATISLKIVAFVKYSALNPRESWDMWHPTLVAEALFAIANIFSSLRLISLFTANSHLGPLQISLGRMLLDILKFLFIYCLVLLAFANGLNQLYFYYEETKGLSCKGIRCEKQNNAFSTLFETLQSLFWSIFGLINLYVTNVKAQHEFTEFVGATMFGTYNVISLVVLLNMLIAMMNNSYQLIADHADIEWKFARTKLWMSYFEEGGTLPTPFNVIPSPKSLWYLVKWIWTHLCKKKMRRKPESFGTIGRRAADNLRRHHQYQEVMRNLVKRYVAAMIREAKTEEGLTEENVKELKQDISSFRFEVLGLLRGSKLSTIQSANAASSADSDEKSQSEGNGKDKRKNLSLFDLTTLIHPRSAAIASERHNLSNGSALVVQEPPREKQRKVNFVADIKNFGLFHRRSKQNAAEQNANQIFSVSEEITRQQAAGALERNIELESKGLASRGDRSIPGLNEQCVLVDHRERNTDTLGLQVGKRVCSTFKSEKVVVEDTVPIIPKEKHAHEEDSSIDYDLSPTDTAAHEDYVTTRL

[9] = target: T5, Short transient receptor potential channel 4; assay: mouse TRPC4 block via Gq-coupled stimulation – cell-based, acetylcholine stimulus, HEK293 TRPC4, Fluo-4, SAR follow-up (AID 492996); format: functional
[10] = target: T5, Short transient receptor potential channel 4; assay: SAR Analysis for the identification of selective inhibits of the transient receptor potential cation channel C4 (TRPC4): Automated Electrophysiology. [Related pubchem assays (depositor defined):AID2256]; format: functional
[11] = target: T5, Short transient receptor potential channel 4; assay: SAR Analysis for the identification of selective inhibitors of the transient receptor potential cation channel C4 (TRPC4): TRPC4 Serotonin Receptor CRC MPD assay. [Related pubchem assays (depositor defined):AID2247, AID2256]; format: functional
[12] = test system: INS1; assay: INS-1E mitochondrial potential rescue under cytokines – cell-based, JC-1 fluorescence ratio, dry powder, dose response (AID 488931); format: functional; conditions: Rattus norvegicus
[13] = test system: INS1; assay: beta-cell survival under cytokine stress – INS-1E, ATP luminescence, dry powder, dose response (AID 488844); format: functional, cell-based; conditions: Rattus norvegicus
[14] = target: T6, Acyl-homoserine lactone acylase PvdQ (Pseudomonas aeruginosa (strain LESB58), UniProt Q9I194); assay: PvdQ acylase enzyme activity blockers – biochemical, fluorescence, plate reader and imaging, cherry-picks, dose response (AID 493231)
T6 sequence (Q9I194 whole entry): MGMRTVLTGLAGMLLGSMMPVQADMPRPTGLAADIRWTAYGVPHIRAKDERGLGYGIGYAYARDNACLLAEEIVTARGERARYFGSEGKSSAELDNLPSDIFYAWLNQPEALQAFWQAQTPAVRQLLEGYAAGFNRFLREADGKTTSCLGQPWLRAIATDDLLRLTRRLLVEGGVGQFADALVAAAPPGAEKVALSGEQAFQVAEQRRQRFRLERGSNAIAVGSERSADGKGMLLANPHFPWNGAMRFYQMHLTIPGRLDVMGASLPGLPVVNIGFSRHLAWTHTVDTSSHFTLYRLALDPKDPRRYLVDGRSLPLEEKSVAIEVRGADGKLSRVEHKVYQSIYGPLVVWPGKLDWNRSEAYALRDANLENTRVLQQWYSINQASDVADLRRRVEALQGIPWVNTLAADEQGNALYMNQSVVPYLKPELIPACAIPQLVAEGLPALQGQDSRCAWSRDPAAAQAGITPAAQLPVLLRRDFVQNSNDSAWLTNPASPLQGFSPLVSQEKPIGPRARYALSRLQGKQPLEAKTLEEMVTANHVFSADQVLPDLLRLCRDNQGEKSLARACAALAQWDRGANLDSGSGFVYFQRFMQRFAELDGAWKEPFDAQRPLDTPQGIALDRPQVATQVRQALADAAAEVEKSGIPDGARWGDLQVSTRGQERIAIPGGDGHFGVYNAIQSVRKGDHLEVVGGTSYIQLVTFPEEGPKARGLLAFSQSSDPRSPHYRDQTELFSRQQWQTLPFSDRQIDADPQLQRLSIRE

[15] = test system: HeLa; assay: toxicity to human HeLa cells – cell-based, 48 h, plate reader, cherry-picks, cytotoxicity control, dose response (AID 504942); format: functional

T3 sequence (P0AE70 whole entry): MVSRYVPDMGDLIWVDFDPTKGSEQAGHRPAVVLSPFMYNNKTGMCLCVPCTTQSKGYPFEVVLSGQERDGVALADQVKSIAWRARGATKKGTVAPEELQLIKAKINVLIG
Sequence of Ephrin type-A receptor 4 (Q03137 whole entry): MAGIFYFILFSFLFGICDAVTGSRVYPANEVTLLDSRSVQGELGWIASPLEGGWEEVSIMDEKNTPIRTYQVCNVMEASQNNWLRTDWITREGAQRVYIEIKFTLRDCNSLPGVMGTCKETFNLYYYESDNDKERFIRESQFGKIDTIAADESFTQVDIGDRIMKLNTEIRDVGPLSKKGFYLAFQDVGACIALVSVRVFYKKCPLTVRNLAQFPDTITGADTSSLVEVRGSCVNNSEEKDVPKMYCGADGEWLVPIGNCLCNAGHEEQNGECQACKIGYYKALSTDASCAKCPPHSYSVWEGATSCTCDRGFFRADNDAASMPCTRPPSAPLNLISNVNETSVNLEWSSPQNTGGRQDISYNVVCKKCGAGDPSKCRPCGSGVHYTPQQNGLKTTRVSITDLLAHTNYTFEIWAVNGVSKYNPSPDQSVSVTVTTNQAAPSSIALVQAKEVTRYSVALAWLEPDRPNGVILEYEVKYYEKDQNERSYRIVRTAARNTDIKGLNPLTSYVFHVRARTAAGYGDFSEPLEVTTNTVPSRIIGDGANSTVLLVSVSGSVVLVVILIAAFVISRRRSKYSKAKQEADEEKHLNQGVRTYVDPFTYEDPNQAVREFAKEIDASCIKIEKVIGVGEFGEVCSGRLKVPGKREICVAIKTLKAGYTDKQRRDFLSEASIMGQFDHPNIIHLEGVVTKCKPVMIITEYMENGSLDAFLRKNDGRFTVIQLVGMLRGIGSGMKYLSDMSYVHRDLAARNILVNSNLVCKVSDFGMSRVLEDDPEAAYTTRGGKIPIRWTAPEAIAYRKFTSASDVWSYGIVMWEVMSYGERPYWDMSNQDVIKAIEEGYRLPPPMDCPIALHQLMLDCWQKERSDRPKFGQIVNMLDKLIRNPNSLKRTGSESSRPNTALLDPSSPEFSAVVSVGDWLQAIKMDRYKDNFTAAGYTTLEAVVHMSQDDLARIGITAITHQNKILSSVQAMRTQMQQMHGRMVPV
Sequence of Voltage-dependent T-type calcium channel subunit alpha-1H (O95180 whole entry): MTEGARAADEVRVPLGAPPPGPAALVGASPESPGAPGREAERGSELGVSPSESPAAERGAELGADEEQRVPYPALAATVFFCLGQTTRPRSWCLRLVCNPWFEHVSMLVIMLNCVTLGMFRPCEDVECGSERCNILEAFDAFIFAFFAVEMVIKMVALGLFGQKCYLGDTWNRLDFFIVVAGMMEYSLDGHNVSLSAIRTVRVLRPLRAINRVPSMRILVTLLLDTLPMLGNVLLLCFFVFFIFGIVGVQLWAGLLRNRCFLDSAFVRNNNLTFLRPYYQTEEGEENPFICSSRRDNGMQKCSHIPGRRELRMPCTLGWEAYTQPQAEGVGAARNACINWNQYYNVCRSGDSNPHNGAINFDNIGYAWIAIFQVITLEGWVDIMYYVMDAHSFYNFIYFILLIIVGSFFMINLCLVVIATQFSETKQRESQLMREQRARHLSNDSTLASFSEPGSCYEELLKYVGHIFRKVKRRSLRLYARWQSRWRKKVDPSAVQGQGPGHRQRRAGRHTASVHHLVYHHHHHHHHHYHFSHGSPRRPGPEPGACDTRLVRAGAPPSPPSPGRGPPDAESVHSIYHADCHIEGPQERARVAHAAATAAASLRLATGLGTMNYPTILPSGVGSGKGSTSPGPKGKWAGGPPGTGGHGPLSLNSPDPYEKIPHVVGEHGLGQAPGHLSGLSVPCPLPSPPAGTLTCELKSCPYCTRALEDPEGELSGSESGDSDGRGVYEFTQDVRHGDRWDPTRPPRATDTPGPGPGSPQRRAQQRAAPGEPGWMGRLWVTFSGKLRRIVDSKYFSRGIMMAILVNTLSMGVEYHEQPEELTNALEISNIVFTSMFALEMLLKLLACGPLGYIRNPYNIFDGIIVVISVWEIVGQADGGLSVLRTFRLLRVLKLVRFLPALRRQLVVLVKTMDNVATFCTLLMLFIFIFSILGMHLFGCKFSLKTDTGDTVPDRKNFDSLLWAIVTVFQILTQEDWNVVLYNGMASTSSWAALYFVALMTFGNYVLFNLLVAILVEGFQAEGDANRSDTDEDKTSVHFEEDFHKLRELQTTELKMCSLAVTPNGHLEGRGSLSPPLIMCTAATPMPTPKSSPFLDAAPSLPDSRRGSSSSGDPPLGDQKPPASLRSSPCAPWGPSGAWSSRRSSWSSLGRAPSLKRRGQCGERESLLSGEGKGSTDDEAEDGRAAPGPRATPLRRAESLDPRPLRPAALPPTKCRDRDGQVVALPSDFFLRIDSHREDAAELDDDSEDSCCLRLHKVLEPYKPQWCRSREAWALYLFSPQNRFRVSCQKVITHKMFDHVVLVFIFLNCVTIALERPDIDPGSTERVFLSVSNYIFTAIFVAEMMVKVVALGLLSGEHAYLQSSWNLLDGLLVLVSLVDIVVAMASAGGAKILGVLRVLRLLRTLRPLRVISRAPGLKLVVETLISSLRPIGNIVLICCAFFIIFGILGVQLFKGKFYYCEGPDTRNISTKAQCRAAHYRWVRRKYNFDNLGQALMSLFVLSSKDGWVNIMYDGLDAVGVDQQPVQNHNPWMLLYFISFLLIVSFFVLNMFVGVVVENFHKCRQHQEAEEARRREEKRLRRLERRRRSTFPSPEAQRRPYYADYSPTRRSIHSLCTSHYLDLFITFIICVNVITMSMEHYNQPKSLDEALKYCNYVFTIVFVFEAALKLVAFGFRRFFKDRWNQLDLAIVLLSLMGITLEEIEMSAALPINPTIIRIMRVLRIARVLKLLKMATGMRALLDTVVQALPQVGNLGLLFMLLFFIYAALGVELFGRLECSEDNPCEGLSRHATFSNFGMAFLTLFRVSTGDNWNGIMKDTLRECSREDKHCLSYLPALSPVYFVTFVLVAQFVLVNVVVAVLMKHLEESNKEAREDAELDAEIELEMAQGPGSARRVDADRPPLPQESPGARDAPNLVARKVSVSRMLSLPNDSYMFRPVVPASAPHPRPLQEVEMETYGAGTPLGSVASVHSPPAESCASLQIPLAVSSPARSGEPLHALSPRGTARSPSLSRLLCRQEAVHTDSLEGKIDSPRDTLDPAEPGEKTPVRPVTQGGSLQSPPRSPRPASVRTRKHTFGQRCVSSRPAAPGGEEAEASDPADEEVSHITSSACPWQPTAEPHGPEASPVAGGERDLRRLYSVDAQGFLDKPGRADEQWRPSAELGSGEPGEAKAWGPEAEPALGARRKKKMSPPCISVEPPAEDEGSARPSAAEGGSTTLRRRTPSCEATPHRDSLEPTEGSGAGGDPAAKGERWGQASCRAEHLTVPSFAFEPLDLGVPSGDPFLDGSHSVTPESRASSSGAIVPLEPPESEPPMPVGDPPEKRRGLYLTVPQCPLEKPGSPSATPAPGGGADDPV

Structure (SMILES): CC(C)(C)C(=O)c1sc2nc(-c3cccs3)cc(C(F)(F)F)c2c1N
EC50 [1]: > 300 µM (inconclusive) | EC50 [2]: > 300 µM (not active) | EC50 [3]: 2.59 µM (active) | EC50 [4]: > 99 µM (inactive) | EC50 [5]: > 99 µM (inactive) | IC50 [6]: 9.9 µM (active) | EC50 [7]: 18 µM (active)

IC50 [8]: 7.24 µM (active) | IC50 [9]: 20.7 µM (active) | IC50 [10]: 3.14 µM (active) | IC50 [11]: 5.47 µM (active)
Structure (SMILES): Cc1cc(N2CCC(C)CC2)nc2ccccc12

Structure (SMILES): COc1ccc(S(=O)(=O)N(C)C[C@@H]2Oc3c(NC(=O)Nc4cccc5ccccc45)cccc3C(=O)N(C(C)C)C[C@H]2C)cc1
AC50 [12]: 24 µM (active) | AC50 [13]: 63.7 µM (active)

Structure (SMILES): Cn1cccc1C(=O)OCc1cc(-c2ccco2)on1
AC50 [14]: 11.1 µM (active) | AC50 [15]: > 380 µM (inactive)
